# Measured values taken from patent US20220281848A1, “PYRAZOLE-SUBSTITUTED PYRROLIDINONES AS HERBICIDES” (FMC Corporation, priority 2019, published 2022).
# Assays:
# plants = assay: Test D post-emergence, other plants of Tables D2 and D4; type: in vivo; details: for damage to plant (100=total damage to plant; 0=no damage to plant), ABUTH / damage to plant (100=total damage to plant; 0=no damage to plant), AMARE / damage to plant (100=total damage to plant; 0=no damage to plant), BIDPI / damage to plant (100=total damage to plant; 0=no damage to plant), BRAPL / damage to plant (100=total damage to plant; 0=no damage to plant), CYPES / damage to plant (100=total damage to plant; 0=no damage to plant), DIGSA / damage to plant (100=total damage to plant; 0=no damage to plant), ECHCG / damage to plant (100=total damage to plant; 0=no damage to plant), ELEIN / damage to plant (100=total damage to plant; 0=no damage to plant), EPHHL / damage to plant (100=total damage to plant; 0=no damage to plant), GLXMA / damage to plant (100=total damage to plant; 0=no damage to plant), IPOHE / damage to plant (100=total damage to plant; 0=no damage to plant), ORYSA / damage to plant (100=total damage to plant; 0=no damage to plant), PANMI / damage to plant (100=total damage to plant; 0=no damage to plant), SETFA / damage to plant (100=total damage to plant; 0=no damage to plant), SORVU: post-emergence
# Summary of the method: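 Seeds treated with herbicide safener; sown in soil; glasshouse, 16 h light, 65% humidity. Sprayed day 1 (pre) or ~day 12 (post). Spray in 0.2% v/v adjuvant. Scored 0–100 damage: 20 DAA pre, 15 d post.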
# [1] = test system: velvetleaf (Abutilon theophrasti, ABUTH); assay: Test A post-emergence, velvetleaf; type: in vivo; details: after 13 d
# Summary of the method: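 Visual damage rating (0 no damage to 100 total damage) was made 13 d after spraying. The spray was 15.625, 62.5 or 250 g/ha in 50:50 acetone/water with 0.5% Tween 20, applied to 8-day-old glasshouse plants kept at 24/16° C, 14 h light and 65% humidity.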
compound,measurement,setting,value
CN1CC(c2cc(C(F)(F)F)n(C)n2)C(C(=O)Nc2cccc(F)c2C(F)(F)F)C1=O (racemic) [Compound 19],STEME damage rating (100=total damage to plant; 0=no damage to plant),"plants; STEME, ""Cereals"" Postemergent, Rates 500, evaluated after 15 d",0
same,VERPE damage rating (100=total damage to plant; 0=no damage to plant),"plants; ""Cereals"" Postemergent, Rates 130, evaluated after 15 d",0
same,VERPE damage rating (100=total damage to plant; 0=no damage to plant),"plants; ""Cereals"" Postemergent, Rates 250, evaluated after 15 d",0
same,VERPE damage rating (100=total damage to plant; 0=no damage to plant),"plants; ""Cereals"" Postemergent, Rates 500, evaluated after 15 d",10
same,"damage to plant (100=total damage to plant; 0=no damage to plant), ABUTH","plants; rate 130, evaluated after 15 d",0
same,"damage to plant (100=total damage to plant; 0=no damage to plant), ABUTH","plants; rate 250, evaluated after 15 d",10
same,"damage to plant (100=total damage to plant; 0=no damage to plant), ABUTH","plants; rate 500, evaluated after 15 d",20
same,"damage to plant (100=total damage to plant; 0=no damage to plant), AMARE","plants; rate 130, evaluated after 15 d",0
same,"damage to plant (100=total damage to plant; 0=no damage to plant), AMARE","plants; rate 250, evaluated after 15 d",10
same,"damage to plant (100=total damage to plant; 0=no damage to plant), AMARE","plants; rate 500, evaluated after 15 d",20
same,"damage to plant (100=total damage to plant; 0=no damage to plant), BIDPI","plants; rate 130, evaluated after 15 d",0
same,"damage to plant (100=total damage to plant; 0=no damage to plant), BIDPI","plants; rate 250, evaluated after 15 d",0
same,"damage to plant (100=total damage to plant; 0=no damage to plant), BIDPI","plants; rate 500, evaluated after 15 d",10
same,"damage to plant (100=total damage to plant; 0=no damage to plant), BRAPL","plants; rate 130, evaluated after 15 d",60
same,"damage to plant (100=total damage to plant; 0=no damage to plant), BRAPL","plants; rate 250, evaluated after 15 d",70
same,"damage to plant (100=total damage to plant; 0=no damage to plant), BRAPL","plants; rate 500, evaluated after 15 d",80
same,"damage to plant (100=total damage to plant; 0=no damage to plant), CYPES","plants; rate 130, evaluated after 15 d",0
same,"damage to plant (100=total damage to plant; 0=no damage to plant), CYPES","plants; rate 250, evaluated after 15 d",0
same,"damage to plant (100=total damage to plant; 0=no damage to plant), CYPES","plants; rate 500, evaluated after 15 d",0
same,"damage to plant (100=total damage to plant; 0=no damage to plant), DIGSA","plants; rate 130, evaluated after 15 d",60
same,"damage to plant (100=total damage to plant; 0=no damage to plant), DIGSA","plants; rate 250, evaluated after 15 d",70
same,"damage to plant (100=total damage to plant; 0=no damage to plant), DIGSA","plants; rate 500, evaluated after 15 d",80
same,"damage to plant (100=total damage to plant; 0=no damage to plant), ECHCG","plants; rate 130, evaluated after 15 d",10
same,"damage to plant (100=total damage to plant; 0=no damage to plant), ECHCG","plants; rate 250, evaluated after 15 d",20
same,"damage to plant (100=total damage to plant; 0=no damage to plant), ECHCG","plants; rate 500, evaluated after 15 d",70
same,"damage to plant (100=total damage to plant; 0=no damage to plant), ELEIN","plants; rate 130, evaluated after 15 d",10
same,"damage to plant (100=total damage to plant; 0=no damage to plant), ELEIN","plants; rate 250, evaluated after 15 d",10
same,"damage to plant (100=total damage to plant; 0=no damage to plant), ELEIN","plants; rate 500, evaluated after 15 d",60
same,"damage to plant (100=total damage to plant; 0=no damage to plant), EPHHL","plants; rate 130, evaluated after 15 d",0
same,"damage to plant (100=total damage to plant; 0=no damage to plant), EPHHL","plants; rate 250, evaluated after 15 d",10
same,"damage to plant (100=total damage to plant; 0=no damage to plant), EPHHL","plants; rate 500, evaluated after 15 d",30
same,"damage to plant (100=total damage to plant; 0=no damage to plant), GLXMA","plants; rate 130, evaluated after 15 d",0
same,"damage to plant (100=total damage to plant; 0=no damage to plant), GLXMA","plants; rate 250, evaluated after 15 d",0
same,"damage to plant (100=total damage to plant; 0=no damage to plant), GLXMA","plants; rate 500, evaluated after 15 d",20
same,"damage to plant (100=total damage to plant; 0=no damage to plant), IPOHE","plants; rate 130, evaluated after 15 d",0
same,"damage to plant (100=total damage to plant; 0=no damage to plant), IPOHE","plants; rate 250, evaluated after 15 d",0
same,"damage to plant (100=total damage to plant; 0=no damage to plant), IPOHE","plants; rate 500, evaluated after 15 d",20
same,"damage to plant (100=total damage to plant; 0=no damage to plant), ORYSA","plants; rate 130, evaluated after 15 d",0
same,"damage to plant (100=total damage to plant; 0=no damage to plant), ORYSA","plants; rate 250, evaluated after 15 d",0
same,"damage to plant (100=total damage to plant; 0=no damage to plant), ORYSA","plants; rate 500, evaluated after 15 d",10
same,"damage to plant (100=total damage to plant; 0=no damage to plant), PANMI","plants; rate 130, evaluated after 15 d",0
same,"damage to plant (100=total damage to plant; 0=no damage to plant), PANMI","plants; rate 250, evaluated after 15 d",10
same,"damage to plant (100=total damage to plant; 0=no damage to plant), PANMI","plants; rate 500, evaluated after 15 d",40
same,"damage to plant (100=total damage to plant; 0=no damage to plant), SETFA","plants; rate 130, evaluated after 15 d",0
same,"damage to plant (100=total damage to plant; 0=no damage to plant), SETFA","plants; rate 250, evaluated after 15 d",50
same,"damage to plant (100=total damage to plant; 0=no damage to plant), SETFA","plants; rate 500, evaluated after 15 d",70
same,"damage to plant (100=total damage to plant; 0=no damage to plant), SORVU","plants; rate 130, evaluated after 15 d",0
same,"damage to plant (100=total damage to plant; 0=no damage to plant), SORVU","plants; rate 250, evaluated after 15 d",0
same,"damage to plant (100=total damage to plant; 0=no damage to plant), SORVU","plants; rate 500, evaluated after 15 d",20
same,damage to plant (100=total damage; 0=no damage) ABUTH,[1]; Post-Emergence at 15.625 g/ha,0
same,damage to plant (100=total damage; 0=no damage) ABUTH,[1]; Post-Emergence at 62.5 g/ha,0
same,damage to plant (100=total damage; 0=no damage) ABUTH,[1]; Post-Emergence at 250 g/ha,0
